% of inhibition and % of control data for 6 molecules are collected here from ChEMBL document CHEMBL5465560, “Selectivity Literature for EUbOPEN Chemogenomic Library” (2024).

In assay [1] the target is Cyclin-Y/Cyclin-dependent kinase 16 (Homo sapiens) (UniProt Q00536+Q8ND76). Briefly: Selectivity interaction (LanthaScreen Eu Kinase Binding Assay) EUB0001632a CDK16. Particulars: at 10 µM. In kind it is protein-complex assay.
For assay [2], the target named is T1, Mitogen-activated protein kinase kinase kinase 2 (Homo sapiens) (UniProt Q9Y2U5).
T1 sequence (whole entry): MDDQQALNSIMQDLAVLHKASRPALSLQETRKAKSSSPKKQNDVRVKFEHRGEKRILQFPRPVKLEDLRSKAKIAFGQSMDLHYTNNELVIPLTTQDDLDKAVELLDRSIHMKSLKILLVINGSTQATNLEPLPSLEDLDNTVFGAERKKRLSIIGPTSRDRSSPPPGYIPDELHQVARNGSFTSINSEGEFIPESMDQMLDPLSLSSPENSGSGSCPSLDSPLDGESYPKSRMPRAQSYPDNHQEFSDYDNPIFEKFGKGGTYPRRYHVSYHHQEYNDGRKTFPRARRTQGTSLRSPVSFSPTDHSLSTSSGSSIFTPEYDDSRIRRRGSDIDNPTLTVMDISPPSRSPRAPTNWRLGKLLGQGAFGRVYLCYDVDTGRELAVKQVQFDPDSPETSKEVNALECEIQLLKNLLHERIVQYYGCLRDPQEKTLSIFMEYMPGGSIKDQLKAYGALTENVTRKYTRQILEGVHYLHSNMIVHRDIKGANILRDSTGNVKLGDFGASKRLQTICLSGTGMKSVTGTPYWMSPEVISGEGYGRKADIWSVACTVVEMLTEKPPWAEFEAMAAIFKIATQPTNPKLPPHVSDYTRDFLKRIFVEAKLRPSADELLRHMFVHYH
Nature of the assay: Selectivity interaction (KinomeScan (DiscoverX)) EUB0001619a MAP3K2. Particulars: at 1 µM.

The target of assay [3] is T2, Ephrin type-A receptor 6 (Homo sapiens) (UniProt Q9UF33).
T2 sequence (whole entry): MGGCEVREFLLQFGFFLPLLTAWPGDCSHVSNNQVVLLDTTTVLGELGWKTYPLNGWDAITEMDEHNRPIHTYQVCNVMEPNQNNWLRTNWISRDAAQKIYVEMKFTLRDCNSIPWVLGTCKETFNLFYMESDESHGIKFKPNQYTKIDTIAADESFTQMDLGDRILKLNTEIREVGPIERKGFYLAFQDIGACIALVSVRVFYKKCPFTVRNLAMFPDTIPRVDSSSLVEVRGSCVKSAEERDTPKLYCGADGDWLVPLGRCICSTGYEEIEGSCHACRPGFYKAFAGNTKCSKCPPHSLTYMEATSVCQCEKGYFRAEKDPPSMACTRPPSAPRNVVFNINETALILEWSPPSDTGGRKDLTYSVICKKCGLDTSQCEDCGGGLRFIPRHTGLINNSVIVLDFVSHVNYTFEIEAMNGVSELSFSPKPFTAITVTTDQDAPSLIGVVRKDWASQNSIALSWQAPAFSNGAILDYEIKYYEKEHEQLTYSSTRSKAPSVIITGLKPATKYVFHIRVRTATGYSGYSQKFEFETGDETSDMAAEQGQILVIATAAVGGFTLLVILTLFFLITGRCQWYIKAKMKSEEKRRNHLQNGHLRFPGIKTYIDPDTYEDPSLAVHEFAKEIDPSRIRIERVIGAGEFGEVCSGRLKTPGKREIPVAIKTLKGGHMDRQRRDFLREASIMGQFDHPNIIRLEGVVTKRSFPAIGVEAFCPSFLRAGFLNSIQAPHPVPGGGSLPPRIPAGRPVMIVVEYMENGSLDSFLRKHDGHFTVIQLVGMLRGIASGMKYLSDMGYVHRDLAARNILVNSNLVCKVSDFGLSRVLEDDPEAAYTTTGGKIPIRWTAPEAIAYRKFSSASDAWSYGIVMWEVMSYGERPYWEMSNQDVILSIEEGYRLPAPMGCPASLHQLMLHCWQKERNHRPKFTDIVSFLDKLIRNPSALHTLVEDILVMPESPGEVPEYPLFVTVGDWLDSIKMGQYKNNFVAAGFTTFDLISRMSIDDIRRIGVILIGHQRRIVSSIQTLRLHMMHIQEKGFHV
Briefly: Selectivity interaction (KinomeScan (DiscoverX)) EUB0000666a EPHA6. As to conditions: at 10 µM.

The target of assay [4] is Activin receptor type-2B (Homo sapiens) (UniProt Q13705). Nature of the assay: Selectivity interaction (KinomeScan (DiscoverX)) EUB0000045b ACVR2B.
Assay [5] concerns the target T3, Ephrin type-A receptor 3 (Homo sapiens) (UniProt P29320).
T3 sequence (whole entry): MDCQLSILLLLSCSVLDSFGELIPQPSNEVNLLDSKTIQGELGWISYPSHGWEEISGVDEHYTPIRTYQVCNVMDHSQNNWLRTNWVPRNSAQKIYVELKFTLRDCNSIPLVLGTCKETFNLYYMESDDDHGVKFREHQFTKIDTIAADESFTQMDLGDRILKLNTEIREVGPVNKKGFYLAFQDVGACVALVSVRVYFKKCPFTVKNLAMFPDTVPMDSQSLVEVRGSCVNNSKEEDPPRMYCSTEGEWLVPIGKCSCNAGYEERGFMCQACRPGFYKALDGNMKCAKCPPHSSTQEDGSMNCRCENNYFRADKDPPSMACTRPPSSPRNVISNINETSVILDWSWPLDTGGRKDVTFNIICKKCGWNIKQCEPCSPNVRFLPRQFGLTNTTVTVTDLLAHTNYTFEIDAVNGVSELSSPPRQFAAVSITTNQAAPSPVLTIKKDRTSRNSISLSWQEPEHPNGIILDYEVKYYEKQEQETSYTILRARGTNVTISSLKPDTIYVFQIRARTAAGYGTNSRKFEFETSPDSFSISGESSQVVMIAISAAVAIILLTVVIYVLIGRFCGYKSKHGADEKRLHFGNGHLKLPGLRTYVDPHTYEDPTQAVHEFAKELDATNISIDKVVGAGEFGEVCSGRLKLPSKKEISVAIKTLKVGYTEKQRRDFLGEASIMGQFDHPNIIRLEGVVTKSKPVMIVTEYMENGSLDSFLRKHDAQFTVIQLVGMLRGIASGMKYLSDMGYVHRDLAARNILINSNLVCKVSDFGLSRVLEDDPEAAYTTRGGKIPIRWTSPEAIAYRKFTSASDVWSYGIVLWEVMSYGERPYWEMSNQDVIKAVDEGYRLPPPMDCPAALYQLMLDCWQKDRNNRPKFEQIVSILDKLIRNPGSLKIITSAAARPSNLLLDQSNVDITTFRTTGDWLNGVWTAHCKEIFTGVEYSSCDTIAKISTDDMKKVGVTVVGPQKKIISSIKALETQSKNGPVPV
Nature of the assay: Selectivity interaction (ProQinase) EUB0000171b EPHA3.

Assay [6] has as its system Serine/threonine-protein kinase B-raf (Homo sapiens), P15056 [V600E]. Particulars: at 10 µM.

Sequence of Activin receptor type-2B (Homo sapiens) (Q13705 whole entry): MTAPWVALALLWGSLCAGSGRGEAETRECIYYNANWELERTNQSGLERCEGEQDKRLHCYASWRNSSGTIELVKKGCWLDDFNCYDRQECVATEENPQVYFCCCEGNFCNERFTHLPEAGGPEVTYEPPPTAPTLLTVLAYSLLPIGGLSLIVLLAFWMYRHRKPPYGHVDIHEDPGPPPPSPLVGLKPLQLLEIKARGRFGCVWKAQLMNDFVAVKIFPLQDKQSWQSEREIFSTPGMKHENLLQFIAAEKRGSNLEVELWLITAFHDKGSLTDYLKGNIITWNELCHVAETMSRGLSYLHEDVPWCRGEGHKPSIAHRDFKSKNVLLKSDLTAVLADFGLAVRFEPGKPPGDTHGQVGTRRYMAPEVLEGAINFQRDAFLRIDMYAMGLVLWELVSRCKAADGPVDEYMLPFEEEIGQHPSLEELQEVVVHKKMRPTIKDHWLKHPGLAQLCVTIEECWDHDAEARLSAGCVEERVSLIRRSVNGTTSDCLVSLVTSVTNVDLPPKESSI
Sequence of Serine/threonine-protein kinase B-raf (Homo sapiens), P15056 [V600E] (P15056 whole entry V600E): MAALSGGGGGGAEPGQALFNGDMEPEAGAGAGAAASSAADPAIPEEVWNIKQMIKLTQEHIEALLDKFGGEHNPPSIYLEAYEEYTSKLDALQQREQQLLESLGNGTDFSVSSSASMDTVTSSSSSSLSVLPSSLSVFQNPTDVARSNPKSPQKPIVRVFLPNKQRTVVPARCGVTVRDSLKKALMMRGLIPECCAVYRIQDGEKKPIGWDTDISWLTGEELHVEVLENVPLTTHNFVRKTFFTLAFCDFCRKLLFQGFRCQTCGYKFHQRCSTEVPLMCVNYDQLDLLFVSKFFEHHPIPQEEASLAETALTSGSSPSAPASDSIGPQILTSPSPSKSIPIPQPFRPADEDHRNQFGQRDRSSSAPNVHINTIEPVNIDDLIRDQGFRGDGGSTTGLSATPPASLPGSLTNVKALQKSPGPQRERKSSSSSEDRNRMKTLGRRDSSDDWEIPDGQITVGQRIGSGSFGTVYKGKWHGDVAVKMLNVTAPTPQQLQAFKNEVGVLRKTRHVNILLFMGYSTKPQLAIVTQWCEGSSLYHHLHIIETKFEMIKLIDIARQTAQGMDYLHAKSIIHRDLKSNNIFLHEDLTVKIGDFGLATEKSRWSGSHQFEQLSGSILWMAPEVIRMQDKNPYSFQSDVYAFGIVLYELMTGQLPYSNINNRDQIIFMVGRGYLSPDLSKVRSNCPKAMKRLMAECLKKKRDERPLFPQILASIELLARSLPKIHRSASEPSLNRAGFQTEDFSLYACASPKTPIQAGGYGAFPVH

Molecule `Cn1cc(-n2cnc3c(NCc4nc5cc(Cl)c(Cl)cc5[nH]4)nc(N4CCOCC4)nc32)cn1` registered a % of inhibition in assay [1] of 15%.

`N#Cc1cccc(-c2c[nH]c3ncnc(N4CCOCC4)c23)c1`: the % of control in assay [2] was 21%.

Regarding `O=C(NOC[C@H](O)CO)c1ccc(F)c(F)c1Nc1ccc(I)cc1F`, in assay [3], the % of control turned out to be 94%.

Consider `C=CC(=O)Nc1cc(-n2c(=O)ccc3cnc4ccc(-c5ccc(NS(C)(=O)=O)cc5)cc4c32)ccc1C`, for which the % of control was 100% in assay [4] (at 1 µM) and 84% in assay [4] (at 10 µM).

Regarding `C=CC(=O)Nc1cccc(C(=O)Nc2ccc(Nc3cc(-c4[nH]c(SC)nc4C)ccn3)cc2)c1`, the figures for the % of control in assay [5] (at 1 µM) and in assay [5] (at 5 µM) were 98% and 89%, respectively.

Molecule `CN(C)CCOc1ccc(-c2nc(-c3ccncc3)c(-c3ccc4c(c3)CC/C4=N\O)[nH]2)cc1` yielded a % of control in assay [6] of 0%.
